The values below come from publication PMC3913610, “Antitumor Activity and Induction of TP53-Dependent Apoptosis toward Ovarian Clear Cell Adenocarcinoma by the Dual PI3K/mTOR Inhibitor DS-7423” (PLoS ONE, 2014).

Experiment [1] deals with phosphorylation of AKT, S6, FOXO1/3a in OCCA cells. Briefly: Immunoblotting of PI3K/mTOR signaling in OCCA cells. The class given is cell-based. The following applies: these doses and higher; OCCA cells. An excerpt: Signals were detected using BioRAD western blotting systems (BioRAD, Hercules, CA) with the detection reagents ECL advance and ECL select (GE Healthcare, Piscataway, NJ).
On the technique in general: A western blot detects proteins with antibodies after separation by electrophoresis.

In the next experiment the target is PI3Kα (Homo sapiens, UniProt P42336). Briefly: PI3Kα inhibition. The class given is biochemical.
For experiment [2], the system named is p-MDM2, p-TP53 in OVMANA cells. Briefly: Immunoblotting of p-MDM2 and p-TP53. The experiment is classed as cell-based. From the text: (§1) Antibodies to total Akt, phosphorylation of Akt (p-Akt) (Ser473, Thr308), p-GSK3beta (Ser9), total S6, p-S6 (Ser235/236, Ser 240/244), p-4EBP1 (Thr37/46), p-FOXO1 (Thr24), p-FOXO3a (Thr32), p-MDM2 (Ser 166), p-TP53 (Ser15), cleaved-PARP, and PARP (Cell Signaling Technology, Beverly, MA), beta-actin (Sigma-Aldrich, St. Louis, MO), TP53 (Santa Cruz, CA, USA) and p-TP53 (Ser46) (Calbiochem, Billerica, MA) were used for immunoblotting, as recommended by the manufacturers. Signals were detected using BioRAD western blotting systems (BioRAD, Hercules, CA) with the detection reagents ECL advance and ECL select (GE Healthcare, Piscataway, NJ).

Experiment [3] concerns cleavage of PARP in OVMANA cells. Briefly: Cleaved PARP immunoblotting. The experiment is classed as cell-based.
Source text: as §1

The next experiment concerns the target PI3Kβ (Homo sapiens, UniProt P42338). Briefly: PI3Kβ inhibition. The experiment is classed as biochemical.
For experiment [4], the target named is Mixed Lineage Kinase 1 (MLK1) (Homo sapiens, UniProt P80192). Briefly: Kinase selectivity panel, MLK1. The class given is biochemical. Conditions: MLK1, relevant activity observed.
A further experiment relates to nine OCCA cell lines. Briefly: Proliferation (MTT/WST-8) assay, OCCA panel. The experiment is classed as cell-based. Conditions: 156 nM, 72 h. The procedure:
(§2) Assays of the suppression of cell proliferation were performed with the Cell Counting Kit-8 using the tetrazolium salt WST-8 [2-(2-methoxy-4-nitrophenyl)-3-(4-nitrophenyl)-5-(2,4-disulfophenyl)-2H-tetrazolium, monosodium salt] (Dojindo, Tokyo, Japan) for the methyl thiazolyl tetrazolium (MTT) assay. […] Proliferation was quantified by monitoring the changes in the absorbance at 450 nm, which were normalized relative to the absorbance of cell cultures treated with DMSO alone.

Another experiment deals with OCCA cell lines. Briefly: Apoptosis by annexin-V FITC/PI staining, OCCA panel. The experiment is classed as cell-based. The procedure: Cells (5×10^5) were cultured in 60-mm plates for 24 h before treatment with either DMSO (control), and 156 nM DS-7423, or 2,500 nM DS-7423 for 48 h. Cells were trypsinized, washed twice with PBS, and then analyzed after double staining with annexin-V fluorescein isothiocyanate (FITC) (Abcam, Cambridge, MA) and PI. The apoptotic cell population was analyzed using flow cytometry. All experiments were performed three times.

The next experiment has as its target PI3Kγ (Homo sapiens, UniProt P48736). Briefly: PI3Kγ inhibition. The experiment is classed as biochemical.
A further experiment concerns OVISE cells. Briefly: Proliferation (MTT/WST-8) assay. The experiment is classed as cell-based. The following applies: siRNA to TP53, MTT assay. The procedure: as §2
On the technique in general: Tetrazolium dyes change colour on reduction, which living cells bring about.

The next experiment relates to seven OSA lines. Briefly: Proliferation (MTT/WST-8) assay, OSA panel. The experiment is classed as cell-based. The following applies: four of seven OSA cell lines. How it is done: as §2
In the next experiment the target is 227 kinases. Briefly: Kinase selectivity panel. The class given is biochemical. The following applies: 227 kinases tested, except MLK1 and NEK2.
In experiment [5] the test system is TP53-regulated genes in OVMANA and OVISE cells. Briefly: Semi-quantitative RT-PCR of TP53 target genes. The experiment is classed as cell-based. From the text: Total RNAs of these cells were extracted with the RNeasy Mini Kit according to the manufacturer's instructions (QIAGEN, Valencia, CA). cDNAs were synthesized from total RNAs by using the Super Script III First-strand Synthesis SuperMix (Invitrogen, Carlsbad, CA). The exponential phase of the RT-PCR occurred between 15–30 cycles, and these cycles were monitored to allow semi-quantitative comparisons among the cDNAs developed from identical reactions. The primers and conditions for the amplification of p53AIP1, p21, and GAPDH sequences were described previously. The PCR primers for PUMA were 5′-[…]-3′ (forward) and 5′-[…] CTC-3′ (reverse). The primers for p53R2, TIGAR, GLS2, GADD45, 14-3-3 sigma and PAI-1 were described previously [30]–[35]. Each PCR regimen involved a 2-min initial denaturation step (94°C), which was followed by 15–30 cycles at 94°C for 30 s, then at 55°C for 30 s, and finally, at 72°C for 30 s using a Thermal Cycler Gene Atlas instrument (ASTEC, Fukuoka, Japan).

PI3Kγ, sequence (P48736 whole entry): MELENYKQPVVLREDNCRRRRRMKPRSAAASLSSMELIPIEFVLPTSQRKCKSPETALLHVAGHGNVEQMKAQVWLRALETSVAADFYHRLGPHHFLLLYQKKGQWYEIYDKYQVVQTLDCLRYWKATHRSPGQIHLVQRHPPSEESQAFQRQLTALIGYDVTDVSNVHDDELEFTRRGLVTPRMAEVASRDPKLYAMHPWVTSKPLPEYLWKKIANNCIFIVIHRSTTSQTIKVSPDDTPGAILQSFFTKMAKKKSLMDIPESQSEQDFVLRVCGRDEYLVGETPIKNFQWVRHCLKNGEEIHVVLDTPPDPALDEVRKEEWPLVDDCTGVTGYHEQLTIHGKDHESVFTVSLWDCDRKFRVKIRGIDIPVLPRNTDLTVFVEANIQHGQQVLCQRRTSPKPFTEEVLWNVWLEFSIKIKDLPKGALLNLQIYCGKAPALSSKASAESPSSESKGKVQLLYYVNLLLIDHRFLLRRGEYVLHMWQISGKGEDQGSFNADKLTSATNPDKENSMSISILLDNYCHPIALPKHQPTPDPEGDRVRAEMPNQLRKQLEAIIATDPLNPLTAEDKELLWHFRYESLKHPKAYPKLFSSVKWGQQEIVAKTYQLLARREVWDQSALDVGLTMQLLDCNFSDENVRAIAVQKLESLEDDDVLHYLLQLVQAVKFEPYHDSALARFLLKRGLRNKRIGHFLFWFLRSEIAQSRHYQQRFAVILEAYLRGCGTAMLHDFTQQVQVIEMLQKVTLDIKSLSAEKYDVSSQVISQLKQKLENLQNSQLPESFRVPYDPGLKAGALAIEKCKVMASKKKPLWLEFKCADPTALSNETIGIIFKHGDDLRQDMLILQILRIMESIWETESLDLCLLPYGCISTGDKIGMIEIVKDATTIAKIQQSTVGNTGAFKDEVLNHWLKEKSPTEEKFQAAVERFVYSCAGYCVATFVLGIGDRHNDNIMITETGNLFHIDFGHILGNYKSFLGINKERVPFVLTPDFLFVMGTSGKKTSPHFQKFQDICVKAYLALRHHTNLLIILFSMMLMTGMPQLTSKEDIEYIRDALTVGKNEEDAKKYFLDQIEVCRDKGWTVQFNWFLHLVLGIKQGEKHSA
PI3Kβ, sequence (P42338 whole entry): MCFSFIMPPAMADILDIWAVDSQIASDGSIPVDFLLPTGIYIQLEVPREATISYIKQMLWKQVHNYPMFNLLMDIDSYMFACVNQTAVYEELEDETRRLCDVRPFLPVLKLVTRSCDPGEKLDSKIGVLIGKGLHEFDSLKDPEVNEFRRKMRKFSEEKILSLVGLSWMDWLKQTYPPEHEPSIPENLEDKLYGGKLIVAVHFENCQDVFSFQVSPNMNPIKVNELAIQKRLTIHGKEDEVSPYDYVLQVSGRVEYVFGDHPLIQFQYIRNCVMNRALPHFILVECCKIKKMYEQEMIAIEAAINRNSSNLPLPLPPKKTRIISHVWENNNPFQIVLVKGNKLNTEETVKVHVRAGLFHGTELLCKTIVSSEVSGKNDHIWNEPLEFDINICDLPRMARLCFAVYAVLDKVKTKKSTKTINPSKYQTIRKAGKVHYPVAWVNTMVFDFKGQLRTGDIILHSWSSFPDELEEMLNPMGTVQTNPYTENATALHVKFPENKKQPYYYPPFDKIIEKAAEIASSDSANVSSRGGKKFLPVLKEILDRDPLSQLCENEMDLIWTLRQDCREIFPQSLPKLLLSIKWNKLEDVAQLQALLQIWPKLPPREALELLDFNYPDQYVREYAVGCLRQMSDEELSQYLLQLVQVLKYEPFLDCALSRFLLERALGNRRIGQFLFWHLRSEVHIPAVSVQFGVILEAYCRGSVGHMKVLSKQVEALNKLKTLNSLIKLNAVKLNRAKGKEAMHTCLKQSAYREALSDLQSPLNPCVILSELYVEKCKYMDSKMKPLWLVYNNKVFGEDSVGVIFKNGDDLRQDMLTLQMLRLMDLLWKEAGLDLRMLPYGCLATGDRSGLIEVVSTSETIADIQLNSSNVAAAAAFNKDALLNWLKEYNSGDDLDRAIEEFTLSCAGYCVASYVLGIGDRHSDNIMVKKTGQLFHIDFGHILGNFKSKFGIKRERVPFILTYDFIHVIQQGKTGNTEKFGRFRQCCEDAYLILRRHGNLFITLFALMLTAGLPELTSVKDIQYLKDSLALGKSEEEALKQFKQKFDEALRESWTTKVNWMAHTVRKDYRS
PI3Kβ, sequence (P27986 whole entry partner): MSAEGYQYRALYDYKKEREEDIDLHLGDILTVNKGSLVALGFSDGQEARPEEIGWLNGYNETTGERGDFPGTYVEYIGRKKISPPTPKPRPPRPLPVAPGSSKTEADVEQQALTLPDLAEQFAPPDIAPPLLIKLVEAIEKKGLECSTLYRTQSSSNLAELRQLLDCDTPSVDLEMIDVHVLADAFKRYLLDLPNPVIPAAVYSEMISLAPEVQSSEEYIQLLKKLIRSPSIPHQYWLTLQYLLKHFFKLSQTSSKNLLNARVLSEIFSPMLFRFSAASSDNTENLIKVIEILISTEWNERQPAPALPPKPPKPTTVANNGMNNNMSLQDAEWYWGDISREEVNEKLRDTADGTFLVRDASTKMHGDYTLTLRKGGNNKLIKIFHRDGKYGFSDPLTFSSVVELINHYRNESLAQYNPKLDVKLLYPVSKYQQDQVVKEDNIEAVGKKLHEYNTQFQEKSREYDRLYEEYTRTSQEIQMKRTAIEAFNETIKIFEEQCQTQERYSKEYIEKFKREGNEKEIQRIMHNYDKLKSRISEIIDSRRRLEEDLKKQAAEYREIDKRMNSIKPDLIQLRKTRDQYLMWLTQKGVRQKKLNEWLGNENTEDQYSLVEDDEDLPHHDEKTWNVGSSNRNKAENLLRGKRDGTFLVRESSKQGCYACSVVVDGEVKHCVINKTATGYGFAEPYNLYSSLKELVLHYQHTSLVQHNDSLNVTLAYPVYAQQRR
PI3Kα, sequence (P42336 whole entry): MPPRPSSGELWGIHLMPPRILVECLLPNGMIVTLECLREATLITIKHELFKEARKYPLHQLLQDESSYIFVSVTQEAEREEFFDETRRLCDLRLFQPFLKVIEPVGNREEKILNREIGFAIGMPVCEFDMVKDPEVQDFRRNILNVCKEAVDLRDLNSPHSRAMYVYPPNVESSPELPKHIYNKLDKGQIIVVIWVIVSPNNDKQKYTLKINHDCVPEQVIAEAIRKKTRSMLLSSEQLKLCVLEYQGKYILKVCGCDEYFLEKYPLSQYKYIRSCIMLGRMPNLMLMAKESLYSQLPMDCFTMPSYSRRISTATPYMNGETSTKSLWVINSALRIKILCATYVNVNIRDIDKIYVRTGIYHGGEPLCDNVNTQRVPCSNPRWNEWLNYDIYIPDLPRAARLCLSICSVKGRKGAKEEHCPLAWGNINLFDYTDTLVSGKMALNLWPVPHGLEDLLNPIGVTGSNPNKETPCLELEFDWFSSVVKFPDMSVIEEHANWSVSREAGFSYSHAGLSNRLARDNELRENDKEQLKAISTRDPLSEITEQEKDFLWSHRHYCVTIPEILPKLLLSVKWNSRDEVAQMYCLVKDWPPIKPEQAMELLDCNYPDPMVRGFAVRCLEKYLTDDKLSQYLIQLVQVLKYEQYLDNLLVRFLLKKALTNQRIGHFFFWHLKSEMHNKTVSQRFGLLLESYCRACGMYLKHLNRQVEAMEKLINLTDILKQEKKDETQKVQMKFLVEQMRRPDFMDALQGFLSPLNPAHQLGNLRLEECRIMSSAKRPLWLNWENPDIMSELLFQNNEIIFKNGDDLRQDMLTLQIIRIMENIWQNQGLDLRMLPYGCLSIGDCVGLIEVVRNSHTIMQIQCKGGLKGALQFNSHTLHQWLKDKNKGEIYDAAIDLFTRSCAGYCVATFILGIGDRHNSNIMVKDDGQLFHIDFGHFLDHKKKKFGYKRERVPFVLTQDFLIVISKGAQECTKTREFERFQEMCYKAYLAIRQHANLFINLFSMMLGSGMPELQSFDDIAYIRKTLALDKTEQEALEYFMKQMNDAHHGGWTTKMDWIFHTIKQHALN
PI3Kα, sequence (P27986 whole entry partner): as the sequence (P27986 whole entry partner) above
Mixed Lineage Kinase 1 (MLK1), sequence (P80192 whole entry, species assumed): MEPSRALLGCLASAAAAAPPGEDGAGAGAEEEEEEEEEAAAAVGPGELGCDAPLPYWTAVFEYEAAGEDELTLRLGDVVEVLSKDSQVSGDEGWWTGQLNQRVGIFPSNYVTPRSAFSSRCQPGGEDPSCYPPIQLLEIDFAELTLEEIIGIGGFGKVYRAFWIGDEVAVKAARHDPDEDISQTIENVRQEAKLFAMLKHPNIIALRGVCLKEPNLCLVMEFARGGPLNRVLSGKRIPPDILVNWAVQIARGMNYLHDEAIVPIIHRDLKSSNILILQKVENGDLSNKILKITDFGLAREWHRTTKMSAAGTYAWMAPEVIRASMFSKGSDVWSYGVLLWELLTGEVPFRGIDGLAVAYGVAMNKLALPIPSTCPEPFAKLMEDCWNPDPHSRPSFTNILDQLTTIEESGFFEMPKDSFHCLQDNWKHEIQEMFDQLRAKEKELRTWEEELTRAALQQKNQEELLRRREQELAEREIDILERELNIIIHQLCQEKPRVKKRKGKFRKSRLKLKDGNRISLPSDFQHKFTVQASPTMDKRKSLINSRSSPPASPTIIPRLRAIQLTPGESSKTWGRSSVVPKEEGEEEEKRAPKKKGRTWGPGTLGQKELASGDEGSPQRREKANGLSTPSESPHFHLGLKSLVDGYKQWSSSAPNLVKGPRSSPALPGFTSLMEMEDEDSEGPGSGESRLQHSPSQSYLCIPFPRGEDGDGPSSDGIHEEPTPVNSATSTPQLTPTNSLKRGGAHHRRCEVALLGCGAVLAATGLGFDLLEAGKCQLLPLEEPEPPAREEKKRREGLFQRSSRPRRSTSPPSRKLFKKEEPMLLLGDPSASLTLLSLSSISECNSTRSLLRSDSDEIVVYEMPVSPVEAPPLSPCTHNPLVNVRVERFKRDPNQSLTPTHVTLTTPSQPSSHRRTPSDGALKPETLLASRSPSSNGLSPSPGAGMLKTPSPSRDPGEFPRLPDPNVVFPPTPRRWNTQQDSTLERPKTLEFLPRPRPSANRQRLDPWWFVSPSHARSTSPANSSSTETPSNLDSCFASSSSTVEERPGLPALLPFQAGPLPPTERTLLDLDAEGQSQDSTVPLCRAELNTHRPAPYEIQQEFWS

Regarding `CC(=O)N1CCN(c2nc3c(N4CCOCC4)nc(-c4cnc(N)nc4)nc3n2CC(F)(F)F)C[C@H]1C` [DS-7423], the “doses suppressing phosphorylation of AKT (Thr308 and Ser473) and S6 (Ser235/236 and Ser240/244)” value in experiment [1] lay in the range of 39 to 156 nM. The IC50 at PI3Kα was 0.0156 µM; against PI3Kβ, 1.14 µM; in [4], less than 0.2 µM; against PI3Kγ, 0.249 µM; in the experiment on seven OSA lines it was more than 0.1 µM. In addition, in [2] (OVMANA cells), the “doses clearly inducing p-TP53 (Ser46), not p-TP53 (Ser15)” value is on record as 156–2,500 nM. Also, the “level of p-MDM2” value in [2] (dose-dependent) is on record as “reduced”. Also, the “concentration at which induction of cleaved-PARP was observed” value in [3] (4 h, dose-dependent up to 2,500 nM) is on record as 39 nM. Further, the “time to cleavage of PARP” value in [3] (OVMANA cells without mutations in TP53, 156 nM) is recorded as not above 2 h. Moreover, the “inhibition of cell growth” value in the experiment on nine OCCA cell lines is recorded as 70%–97%. For the same compound, the “apoptosis (annexin-V FITC/PI)” value in the experiment with OCCA cell lines (156 nM, 48 h, five of the six cell lines that lacked mutations in TP53) is listed as 4–12%; with OCCA cell lines (2,500 nM, 48 h, five cell lines without TP53 mutations), 10–16%; in the experiment on OCCA cell lines (three cell lines with TP53 mutations, any of the doses tested) it was not above 5%. Further, the “ratio of apoptotic cells” value with OCCA cell lines (even at high concentrations) is “less than 20%”. Further, in the experiment on OVISE cells, the “anti-proliferative effect when combined with knockdown of TP53” value is “significantly reduced”. Moreover, the “Relevant activity (IC50 <200 nM)” value at 227 kinases is reported as “not observed”. Moreover, in experiment [5] (39, 156, and 2,500 nM, 24 h), the “expression of p21” value was “did not induce”. Further, the “expression of GADD45” value in [5] (OVISE cells) is listed as “significantly induced”. In [5] (OVMANA and OVISE cells, 24 h), the “doses inducing expression of p53AIP1 and PUMA” value was not below 39 nM. For the same compound, in experiment [5] (OVMANA cells), the “expression of TIGAR” value is on record as “decreased”.

Usually IC50 stands for the concentration that gives 50% inhibition. Low readings indicate greater potency, high ones weaker potency.
